# Data from patent US12534457B2, “Heteroaryl derivative compounds, and uses thereof” (Voronoi Inc., priority 2021, dated 2026).
# Tested on: Ba/F3 cells expressing EGFR Del19/C797S (EGFR DC)
# Assay: Proliferation inhibitory activity, Ba/F3 cells expressing EGFR Del19/C797S (CellTiter-Glo)
# Assay type: cell-based
# Conditions: 72 hours of compound treatment
# Procedure, shortened: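 Viability after 72 h of compound exposure was measured by luminescence (CellTiter-Glo) in Ba/F3 lines transduced with mutant EGFR. Final concentrations spanned 0.2 nM–5 μM over 12 threefold steps. Growth relative to untreated control gave GI50 values; each test was run three times.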
row,GI50,SMILES
1,< 0.05 µM,COc1cc(N2CCC(N3CCCN(C)CC3)CC2)ccc1Nc1cc(N2OCC[C@@H]2c2cccc(F)c2F)ncn1 [Example 221]

# Same assay, conditions: Mus musculus, BaF3, 72 hours of compound treatment
row,SMILES,GI50
1,"COc1cc(Nc2cc(N3OCC[C@@H]3c3ccc(Cl)cc3F)ncn2)ccc1N1CCC(N2CCN(C)CC2)CC1 [Example 105, (R)-6-(3-(4-chloro-2-fluorophenyl)isoxazolidin-2-yl)-N-(3-methoxy-4-(4-(4-methylpiperazin-1-yl)piperidin-1-yl)phenyl)pyrimidin-4-amine]",< 0.05 µM
2,"CCN1CC2CC(C1)N2C1CCN(c2ccc(Nc3cc(N4OCC[C@@H]4c4cccc(F)c4F)ncn3)c(OC)c2)CC1 [Example 220, 6-((R)-3-(2,3-difluorophenyl)isoxazolidin-2-yl)-N-(4-(4-(3-ethyl-3,6-diazabicyclo[3.1.1]heptan-6-yl)piperidin-1-yl)-2-methoxyphenyl)pyrimidin-4-amine]",< 0.05 µM
3,"CCc1cc(Nc2cc(N3OCC[C@@H]3c3ccccc3)ncn2)c(OC)cc1N1CCC(N2CCN(C)CC2)CC1 [Example 109, (R)—N-(5-ethyl-2-methoxy-4-(4-(4-methylpiperazin-1-yl)piperidin-1-yl)phenyl)-6-(3-phenylisoxazolidin-2-yl)pyrimidin-4-amine]",< 0.05 µM
4,"CCc1cc(Nc2cc(N3OCC[C@@H]3c3ccccc3)ncn2)ccc1N1CCC(N2CCN(C)CC2)CC1 [Example 117, (R)—N-(3-ethyl-4-(4-(4-methylpiperazin-1-yl)piperidin-1-yl)phenyl)-6-(3-phenylisoxazolidin-2-yl)pyrimidin-4-amine]",< 0.05 µM
5,"COc1cc2c(cc1Nc1cc(N3OCC[C@@H]3c3cc(F)cc(F)c3)ncn1)NCC21CCN(C)CC1 [Example 154, (R)—N-(6-(3-(3,5-difluorophenyl)isoxazolidin-2-yl)pyrimidin-4-yl)-5-methoxy-1′-methylspiro[indolin-3,4′-piperidin]-6-amine]",< 0.05 µM
6,"COc1cc(N2CCC(N3C[C@H]4C[C@@H]3CN4C)CC2)ccc1Nc1cc(N2OCC[C@@H]2c2ccccc2)ncn1 [Example 57, N-(2-methoxy-4-(4-((1R,4R)-5-methyl-2,5-diazabicyclo[2.2.1]heptan-2-yl)piperidin-1-yl)phenyl)-6-((R)-3-phenylisoxazolidin-2-yl)pyrimidin-4-amine]",< 0.05 µM
7,"Fc1ncc(N2C[C@@H]3C[C@H]2CO3)cc1Nc1cc(N2OCC[C@@H]2c2ccccc2)ncn1 [Example 74, N-(5-((1S,4S)-2-oxa-5-azabicyclo[2.2.1]heptan-5-yl)-2-fluoropyridin-3-yl)-6-((R)-3-phenylisoxazolidin-2-yl)pyrimidin-4-amine]",< 0.05 µM
8,"COc1cc(N2CCN(C3CCN(C)CC3)CC2)ccc1Nc1cc(N2OCC[C@@H]2c2ccccc2)ncn1 [Example 101, (R)—N-(2-methoxy-4-(4-(1-methylpiperidin-4-yl)piperazin-1-yl)phenyl)-6-(3-phenylisoxazolidin-2-yl)pyrimidin-4-amine]",< 0.05 µM
9,"COc1cc(N2CCC(N3CCN(C)CC3)CC2)ccc1Nc1cc(N2OCC[C@@H]2c2cc(F)ccc2F)ncn1 [Example 30, (R)-6-(3-(2,5-difluorophenyl)isoxazolidin-2-yl)-N-(2-methoxy-4-(4-(4-methylpiperazin-1-yl)piperidin-1-yl)phenyl)pyrimidin-4-amine]",< 0.05 µM
10,"COc1cc(N2CCC(N(C)C)CC2)ccc1Nc1cc(N2OCC[C@@H]2c2ccccc2)ncn1 [Example 119, (R)—N-(4-(4-(dimethylamino)piperidin-1-yl)-2-methoxyphenyl)-6-(3-phenylisoxazolidin-2-yl)pyrimidin-4-amine]",< 0.05 µM
11,"CN1C2CC1CN(c1ccc(Nc3cc(N4OCC[C@@H]4c4ccccc4)ncn3)cc1)C2 [Example 136, N-(4-(6-methyl-3,6-diazabicyclo[3.1.1]heptan-3-yl)phenyl)-6-((R)-3-phenylisoxazolidin-2-yl)pyrimidin-4-amine]",< 0.05 µM
12,"COc1cc(OCCN(C)C)ccc1Nc1cc(N2OCC[C@@H]2c2ccccc2)ncn1 [Example 64, (R)—N-(4-(2-(dimethylamino)ethoxy)-2-methoxyphenyl)-6-(3-phenylisoxazolidin-2-yl)pyrimidin-4-amine]",< 0.05 µM
13,"COc1cc(N2CCC(N3CCN(C)CC3)CC2)ccc1Nc1cc(N2OCC[C@@H]2c2ccc(F)c(Cl)c2)ncn1 [Example 31, (R)-6-(3-(3-chloro-4-fluorophenyl)isoxazolidin-2-yl)-N-(2-methoxy-4-(4-(4-methylpiperazin-1-yl)piperidin-1-yl)phenyl)pyrimidin-4-amine]",< 0.05 µM
14,"COc1cc(N2CCC(N3CCOCC3)CC2)ccc1Nc1cc(N2OCC[C@@H]2c2ccccc2)ncn1 [Example 120, (R)—N-(2-methoxy-4-(4-morpholinopiperidin-1-yl)phenyl)-6-(3-phenylisoxazolidin-2-yl)pyrimidin-4-amine]",< 0.05 µM
15,"COc1cc(N2CCC(N3CCN(C)CC3)CC2)ccc1Nc1cc(N2OCC[C@@H]2c2cccs2)ncn1 [Example 35, (R)—N-(2-methoxy-4-(4-(4-methylpiperazin-1-yl)piperidin-1-yl)phenyl)-6-(3-(thiophen-2-yl)isoxazolidin-2-yl)pyrimidin-4-amine]",< 0.05 µM
16,"COc1cc2c(cc1Nc1cc(N3OCC[C@@H]3c3cc(F)cc(F)c3)ncn1)N(C(=O)C(F)(F)F)CC21CCN(C)CC1 [Example 152, (R)-1-(6-((6-(3-(3,5-difluorophenyl)isoxazolidin-2-yl)pyrimidin-4-yl)amino)-5-methoxy-1′-methylspiro[indolin-3,4′-piperidin]-1-yl)-2,2,2-trifluoroethan-1-one]",< 0.05 µM
17,"COc1cc(P2(=O)CCN(C3CC3)CC2)ccc1Nc1cc(N2OCC[C@@H]2c2ccccc2)ncn1 [Example 81, (R)-1-cyclopropyl-4-(3-methoxy-4-((6-(3-phenylisoxazolidin-2-yl)pyrimidin-4-yl)amino)phenyl)-1,4-azaphosphinane 4-oxide]",0.05 to 0.5 µM
18,"CCc1cc(Nc2cc(N3OCC[C@@H]3c3ccc(F)cc3F)ncn2)c(OC)cc1N1CCC(N2CCN(C)CC2)CC1 [Example 93, (R)-6-(3-(2,4-difluorophenyl)isoxazolidin-2-yl)-N-(5-ethyl-2-methoxy-4-(4-(4-methylpiperazin-1-yl)piperidin-1-yl)phenyl)pyrimidin-4-amine]",< 0.05 µM

# More lines, now with the values ahead:
row,GI50,SMILES
1,< 0.05 µM,"COc1nc(N2CCN(C)CC2)c(-c2cnn(C)c2)cc1Nc1cc(N2OCC[C@@H]2c2cccc(F)c2F)ncn1 [Example 202, (R)-6-(3-(2,3-difluorophenyl)isoxazolidin-2-yl)-N-(2-methoxy-5-(1-methyl-1H-pyrazol-4-yl)-6-(4-methylpiperazin-1-yl)pyridin-3-yl)pyrimidin-4-amine]"
2,< 0.05 µM,"COc1cc(N2CCC(N3CCN(CCS(C)(=O)=O)CC3)CC2)ccc1Nc1cc(N2OCC[C@@H]2c2cccc(F)c2F)ncn1 [Example 237, (R)-6-(3-(2,3-difluorophenyl)isoxazolidin-2-yl)-N-(2-methoxy-4-(4-(4-(2-(methylsulfonyl)ethyl)piperazin-1-yl)piperidin-1-yl)phenyl)pyrimidin-4-amine]"
3,< 0.05 µM,"COc1cc(N2CCC(N3CCN(C)[C@@H](C)C3)CC2)ccc1Nc1cc(N2OCC[C@@H]2c2cccc(F)c2F)ncn1 [Example 214, 6-((R)-3-(2,3-difluorophenyl)isoxazolidin-2-yl)-N-(4-(4-((S)-3,4-dimethylpiperazin-1-yl)piperidin-1-yl)-2-methoxyphenyl)pyrimidin-4-amine]"
4,0.05 to 0.5 µM,"CN1CCN(c2ccc(Nc3cc(N4OCC[C@@H]4c4cncc(Cl)c4)ncn3)cc2)CC1 [Example 180, (R)-6-(3-(5-chloropyridin-3-yl)isoxazolidin-2-yl)-N-(4-(4-methylpiperazin-1-yl)phenyl)pyrimidin-4-amine]"
5,< 0.05 µM,"COc1cc(N2CCC(N3CCN(C)CC3)CC2)c(C2CC2)cc1Nc1cc(N2OCC[C@@H]2c2ccccc2)ncn1 [Example 143, (R)—N-(5-cyclopropyl-2-methoxy-4-(4-(4-methylpiperazin-1-yl)piperidin-1-yl)phenyl)-6-(3-phenylisoxazolidin-2-yl)pyrimidin-4-amine]"
6,< 0.05 µM,"CC(C)(C)OC(=O)N1CCc2ccc(Nc3cc(N4OCC[C@@H]4c4ccccc4)ncn3)cc2C1 [Example 134, tert-butyl (R)-7-((6-(3-phenylisoxazolidin-2-yl)pyrimidin-4-yl)amino)-3,4-dihydroisoquinoline-2 (1H)-carboxylate]"
7,< 0.05 µM,"COc1cc(N2CCC(N3CCN(C)C[C@@H]3C)CC2)ccc1Nc1cc(N2OCC[C@@H]2c2cccc(F)c2F)ncn1 [Example 216, 6-((R)-3-(2,3-difluorophenyl)isoxazolidin-2-yl)-N-(4-(4-((S)-2,4-dimethylpiperazin-1-yl)piperidin-1-yl)-2-methoxyphenyl)pyrimidin-4-amine]"
8,< 0.05 µM,"COc1cc(Nc2cc(N3OCC[C@@H]3c3cccc(Cl)c3F)ncn2)ccc1N1CCC(N2CCN(C)CC2)CC1 [Example 125, (R)-6-(3-(3-chloro-2-fluorophenyl)isoxazolidin-2-yl)-N-(3-methoxy-4-(4-(4-methylpiperazin-1-yl)piperidin-1-yl)phenyl)pyrimidin-4-amine]"
9,0.05 to 0.5 µM,"CN1OCC[C@H]1c1ccc(Nc2cc(N3OCC[C@@H]3c3cccc(F)c3F)ncn2)cc1 [Example 176, 6-((R)-3-(2,3-difluorophenyl)isoxazolidin-2-yl)-N-(4-((S)-2-methylisoxazolidin-3-yl)phenyl)pyrimidin-4-amine]"
10,< 0.05 µM,"CO/N=C(\C)c1cc(Nc2cc(N3OCC[C@@H]3c3cccc(F)c3F)ncn2)c(OC)cc1N1CCC(N2CCN(C)CC2)CC1 [Example 146, (R,E)-1-(5-((6-(3-(2,3-difluorophenyl)isoxazolidin-2-yl)pyrimidin-4-yl)amino)-4-methoxy-2-(4-(4-methylpiperazin-1-yl)piperidin-1-yl)phenyl)ethan-1-one O-methyl oxime]"
11,< 0.05 µM,"Cc1cc(Nc2cc(N3OCC[C@@H]3c3cccc(F)c3F)ncn2)ccc1N1CCC(N2CCN(C)CC2)CC1 [Example 126, (R)-6-(3-(2,3-difluorophenyl)isoxazolidin-2-yl)-N-(3-methyl-4-(4-(4-methylpiperazin-1-yl)piperidin-1-yl)phenyl)pyrimidin-4-amine]"
